Target: Endothelial lipase (EL) (Homo sapiens (Human), UniProt Q9Y5X9)
Assay: Endothelial lipase (EL) enzymatic assay with fluorescent substrate A10070 in DMPG vesicles
Format: biochemical
Conditions: not given
Outline: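 Substrate A10070 sits in sonicated DMPG vesicles at 0.11 mole fraction. Lipase and compound preincubated 30 min, 37° C, in HEPES pH 8.0 buffer with CaCl2.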

Endothelial lipase (EL), sequence (Q9Y5X9 21-500): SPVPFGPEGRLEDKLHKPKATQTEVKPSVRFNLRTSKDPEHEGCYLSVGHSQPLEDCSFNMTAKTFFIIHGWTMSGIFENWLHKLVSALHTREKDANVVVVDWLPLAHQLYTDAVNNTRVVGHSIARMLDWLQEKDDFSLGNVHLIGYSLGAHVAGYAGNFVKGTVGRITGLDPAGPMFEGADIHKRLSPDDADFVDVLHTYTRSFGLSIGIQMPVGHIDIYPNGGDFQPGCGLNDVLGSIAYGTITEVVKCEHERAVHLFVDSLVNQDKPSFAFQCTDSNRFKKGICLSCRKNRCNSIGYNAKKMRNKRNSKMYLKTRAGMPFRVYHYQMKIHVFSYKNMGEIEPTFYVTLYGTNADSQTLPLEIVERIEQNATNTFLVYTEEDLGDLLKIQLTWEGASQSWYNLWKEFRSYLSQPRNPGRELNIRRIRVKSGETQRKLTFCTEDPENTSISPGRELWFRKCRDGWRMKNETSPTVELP

Row | Structure (SMILES) | IC50
1 | CC(C)OCCNC(=O)CNC(=O)C(c1nc2cc(F)cc(-c3cnc(C4CC4)nc3)c2s1)S(=O)(=O)c1ccc(F)cc1 (centres unmarked) [Example 466, 2-[7-(2-cyclopropyl-pyrimidin-5-yl)-5-fluoro-1,3-benzothiazol-2-yl]-2-(4-fluorobenzene-sulfonyl)-N-({[2-(propan-2-yloxy)ethyl]carbamoyl}methyl)acetamide] | 0.157 µM
2 | O=C(CNC(=O)C(c1nc2ccc(-c3ccc(F)nc3)cc2s1)S(=O)(=O)c1cccnc1)NC1CC1 (centres unmarked) [Example 467, N-[(cyclopropyl-carbamoyl)methyl]-2-[6-(6-fluoropyridin-3-yl)-1,3-benzothiazol-2-yl]-2-(pyridine-3-sulfonyl) acetamide] | 0.193 µM
3 | Cc1ncc(-c2cc(C)c3nc(C(C(=O)NCC(=O)NC4CC4)S(=O)(=O)c4ccc(F)cc4)sc3c2)cn1 (centres unmarked) [Example 469, N-[(cyclopropyl-carbamoyl)methyl]-2-(4-fluorobenzene-sulfonyl)-2-[4-methyl-6-(2-methylpyrimidin-5-yl)-1,3-benzothiazol-2-yl]acetamide] | 0.041 µM
4 | Cn1ccc(-c2cc(F)c3nc(C(C(=O)NCC(=O)NC4CC4)S(=O)(=O)c4ccc(F)cc4)sc3c2)cc1=O (centres unmarked) [Example 473, N-[(cyclopropyl-carbamoyl)methyl]-2-[4-fluoro-6-(1-methyl-2-oxo-1,2-dihydropyridin-4-yl)-1,3-benzothiazol-2-yl]-2-(4-fluorobenzene-sulfonyl)acetamide] | 0.077 µM
5 | COC(=O)Nc1ccc(-c2cc3sc(C(C(=O)NCC(=O)NC4CC4)S(=O)(=O)c4ccc(F)cc4)nc3cc2F)cc1 (centres unmarked) [Example 478, methyl N-{4-[2-({[(cyclopropyl-carbamoyl)methyl]carbamoyl}(4-fluorobenzene-sulfonyl)methyl)-5-fluoro-1,3-benzothiazol-6-yl]phenyl}carbamate] | 0.002 µM
6 | O=C(CNC(=O)C(c1nc2cc(F)c(-c3ccc(-n4ccccc4=O)cc3)cc2s1)S(=O)(=O)c1ccc(F)cc1)NC1CC1 (centres unmarked) [Example 479, N-[(cyclopropyl-carbamoyl)methyl]-2-{5-fluoro-6-[4-(2-oxo-1,2-dihydropyridin-1-yl)phenyl]-1,3-benzothiazol-2-yl}-2-(4-fluorobenzene-sulfonyl)acetamide] | 0.009 µM
7 | O=C(CNC(=O)C(c1nc2ccc(-c3cncnc3)cc2s1)S(=O)(=O)N1CCOCC1)NC1CC1 (centres unmarked) [Example 481, N-[(cyclopropyl-carbamoyl)methyl]-2-(morpholine-4-sulfonyl)-2-[6-(pyrimidin-5-yl)-1,3-benzothiazol-2-yl]acetamide] | 0.099 µM
8 | O=C(CNC(=O)C(c1nc2ccc(-c3ccc(F)nc3)cc2s1)S(=O)(=O)N1CCOCC1)NC1CC1 (centres unmarked) [Example 483, N-[(cyclopropyl-carbamoyl)methyl]-2-[6-(6-fluoropyridin-3-yl)-1,3-benzothiazol-2-yl]-2-(morpholine-4-sulfonyl)acetamide] | 0.299 µM
9 | CN(C)S(=O)(=O)C(C(=O)NCC(=O)NC1CC1)c1nc2ccc(-c3ccc(F)nc3)cc2s1 (centres unmarked) [Example 484, N-[(cyclopropyl-carbamoyl)methyl]-2-(dimethyl-sulfamoyl)-2-[6-(6-fluoropyridin-3-yl)-1,3-benzothiazol-2-yl]acetamide] | 0.007 µM
10 | Cn1ccc(-c2ccc3nc(C(C(=O)NCC(=O)NC4CC4)S(=O)(=O)N4CCOCC4)sc3c2)cc1=O (centres unmarked) [Example 485, N-[(cyclopropyl-carbamoyl)methyl]-2-[6-(1-methyl-2-oxo-1,2-dihydropyridin-4-yl)-1,3-benzothiazol-2-yl]-2-(morpholine-4-sulfonyl)acetamide] | 0.057 µM

More lines, now with the values ahead:

Row | IC50 | Structure (SMILES)
11 | 0.173 µM | O=C(CNC(=O)C(c1nc2ccc(-c3cccnc3F)cc2s1)S(=O)(=O)N1CCOCC1)NC1CC1 (centres unmarked) [Example 482, N-[(cyclopropyl-carbamoyl)methyl]-2-[6-(2-fluoropyridin-3-yl)-1,3-benzothiazol-2-yl]-2-(morpholine-4-sulfonyl)acetamide]
12 | 0.116 µM | O=C(CNC(=O)C(c1nc2c(F)cc(-c3cncnc3)cc2s1)S(=O)(=O)c1ccc(F)cc1)NC1CC1 (centres unmarked) [Example 474, N-[(cyclopropyl-carbamoyl)methyl]-2-[4-fluoro-6-(pyrimidin-5-yl)-1,3-benzothiazol-2-yl]-2-(4-fluorobenzene-sulfonyl)acetamide]
13 | 0.068 µM | O=C(CNC(=O)C(c1nc2c(F)cc(-c3ccc4c(c3)C(=O)NC4)cc2s1)S(=O)(=O)c1ccc(F)cc1)NC1CC1 (centres unmarked) [Example 477, N-[(cyclopropyl-carbamoyl)methyl]-2-[4-fluoro-6-(3-oxo-2,3-dihydro-1H-isoindol-5-yl)-1,3-benzothiazol-2-yl]-2-(4-fluorobenzene-sulfonyl)acetamide]
14 | 0.051 µM | O=C(CNC(=O)C(c1nc2c(F)cc(-c3cnc(C4CC4)nc3)cc2s1)S(=O)(=O)c1ccc(F)cc1)NC1CC1 (centres unmarked) [Example 476, N-[(cyclopropyl-carbamoyl)methyl]-2-[6-(2-cyclopropyl-pyrimidin-5-yl)-4-fluoro-1,3-benzothiazol-2-yl]-2-(4-fluorobenzene-sulfonyl)acetamide]
15 | 0.023 µM | Cc1ncc(-c2cc(F)c3nc(C(C(=O)NCC(=O)NC4CC4)S(=O)(=O)c4ccc(F)cc4)sc3c2)cn1 (centres unmarked) [Example 471, N-[(cyclopropyl-carbamoyl)methyl]-2-[4-fluoro-6-(2-methylpyrimidin-5-yl)-1,3-benzothiazol-2-yl]-2-(4-fluorobenzene-sulfonyl)acetamide]
16 | 0.023 µM | O=C(CNC(=O)C(c1nc2c(F)cc(-c3ccc(F)nc3)cc2s1)S(=O)(=O)c1ccc(F)cc1)NC1CC1 (centres unmarked) [Example 472, N-[(cyclopropyl-carbamoyl)methyl]-2-[4-fluoro-6-(6-fluoropyridin-3-yl)-1,3-benzothiazol-2-yl]-2-(4-fluorobenzene-sulfonyl)acetamide]
17 | 0.016 µM | CC(C)n1cc(-c2cc(F)c3nc(C(C(=O)NCC(=O)NC4CC4)S(=O)(=O)c4ccc(F)cc4)sc3c2)ccc1=O (centres unmarked) [Example 470, N-[(cyclopropyl-carbamoyl)methyl]-2-{4-fluoro-6-[6-oxo-1-(propan-2-yl)-1,6-dihydropyridin-3-yl]-1,3-benzothiazol-2-yl}-2-(4-fluorobenzene-sulfonyl)acetamide]
18 | 0.007 µM | O=C(CNC(=O)C(c1nc2c(F)cc(-c3ccc4[nH]c(=O)ccc4c3)cc2s1)S(=O)(=O)c1ccc(F)cc1)NC1CC1 (centres unmarked) [Example 475, N-[(cyclopropyl-carbamoyl)methyl]-2-[4-fluoro-6-(2-oxo-1,2-dihydroquinolin-6-yl)-1,3-benzothiazol-2-yl]-2-(4-fluorobenzene-sulfonyl)acetamide]
19 | 0.006 µM | O=C(CNC(=O)C(c1nc2ccc(-c3ccc4c(c3)CNC4=O)cc2s1)S(=O)(=O)c1cccnc1)NC1CC1 (centres unmarked) [Example 468, N-[(cyclopropyl-carbamoyl)methyl]-2-[6-(1-oxo-2,3-dihydro-1H-isoindol-5-yl)-1,3-benzothiazol-2-yl]-2-(pyridine-3-sulfonyl) acetamide]

Same assay, conditions: EL from conditioned media of HT-1080 cells; 30 min preincubation at 37° C.

Row | IC50 | Structure (SMILES)
20 | 0.004 µM | COCCNC(=O)c1ccc(-c2ccc3nc(C(C(=O)NCC(=O)NC4CC4)S(=O)(=O)N4CCOCC4)sc3c2)cc1 (centres unmarked) [Example 480, 4-[2-({[(Cyclopropylcarbamoyl)methyl]carbamoyl}(morpholine-4-sulfonyl)methyl)-1,3-benzothiazol-6-yl]-N-(2-methoxyethyl)benzamide]

From patent US10173991B2, “Sulfone amide linked benzothiazole inhibitors of endothelial lipase” (BRISTOL-MYERS SQUIBB COMPANY, priority 2014, dated 2019)
